This is an account of results in patent publication US8420778B2, “Tripeptides and derivatives thereof for cosmetic application in order to improve skin structure” (DSM IP Assets B.V., priority 2003, dated 2013).

In this test the test system is Collagen Type I Synthesis in Fibroblast Cell Cultures. The test can be described thus: Collagen stimulation by ELISA: stimulation of collagen type I synthesis in fibroblast cell cultures. Type of test: cell-based. Conditions: human skin fibroblasts, 72 h incubation. Here is the method: Type I collagen of in-vitro cultured skin fibroblasts was detected with an ELISA (Enzyme-Linked Immunosorbent Assay). The increase in the collagen production of the cells was quantified in the presence of the peptidic actives by using this method. Human skin fibroblasts were isolated from foreskin and bred in culture medium. After 72 h of incubation with the corresponding peptides (actives) the quantitative determination was performed using an antibody specific for collagen I. [table] The 1st AB (MAB1340; Chemicon) and the 2nd AB (31430; Socochim S.A.) are diluted 1/500 with AB dilution solution. The fibroblasts are incubated until confluent at a density of approx. 5000 cells per well in 96 well-plates in culture medium (37° C./5% CO2) for 3 days. The medium is replaced with test medium with three different concentrations of test substance in triplicate. The following controls are tested on each plate: [table] After incubation of the plates for further 72 hours, the precipitated collagen I is detected and quantified according to the following protocol: • discard medium and wash with 200 μl/well of PBS • fix with 100 μl/well of methanol for 15 min at RT/shaker 600 rpm • discard methanol and block with 200 μl/well of milk solution for 30 min at RT/shaker 600 rpm • discard milk solution and incubate with 100 μl/well of the 1st AB dilution for 2 h at RT/shaker 600 rpm • discard 1st AB dilution and wash 3× with 200 μl/well of washing buffer • incubate with 100 μl/well of the 2nd AB dilution for 3 h at RT/shaker 600 rpm • discard 2nd AB dilution; wash 3× with 200 μl/well of washing buffer and 1× with 100 μl/well of PBS • add 100 μl/well of substrate solution for 20 min at RT/shaker 600 rpm • stop the reaction with 50 μl/well of H2SO4 (2M) and measure at 492 nm.
For orientation: ELISA stands for enzyme-linked immunosorbent assay.

For the substance H-Lys-Val-Lys-O-Octyl*3TFA [Example 8], for the setting “Conc. 25 µmol/L”, the “% Stimulation” value turned out to be 31%. As for H-Lys-Val-Lys-NH-Cetyl*3TFA [Example 7], where the note is “Conc. 100 µmol/L”, the “% Stimulation” value is recorded as 61%. In the case of Palm-Lys-Val-Lys-OH *2AcOH [No 4], the “% Stimulation” value (Conc. 50 µmol/L) was 48%. For H-Lys-Thr-Lys-OH*3TFA [Example 5], the “% Stimulation” value (Conc. 50 µmol/L) was 35%. On to “Elaidoyl-Lys-Thr-Lys-OH*2TFA [Example 4]”, for which the “% Stimulation” value (Conc. 25 µmol/L) was 104%. Turning to “Elaidoyl-Lys-Phe-Lys-OH *2AcOH [Reference compound A, reference compound]”, the “% Stimulation” value (Conc. 0.01 µmol/L) was found to be 23% and the “% Stimulation” value (Conc. 20.0 µmol/L) is 43%.
